Data reported in patent publication US9186390B2, “Methods and uses of TIE2 binding and/or activating agents” (Sunnybrook Health Sciences Center, priority 2010, dated 2015).
“Also recorded” adds a separate entry of the source.

Legend:
chronic asthma mice = test: Chronic asthma model (ovalbumin sensitization, nebulized challenge, d42 / d62); format: in vivo, Balb/c mice
Description: (§1) (Chronic asthma model) Seven week old female Balb/c mice were injected intraperitoneally (IP) with 20 μg of chicken ovalbumin (OVA) absorbed with 1 mg aluminum hydroxide, an adjuvant known to promote the development of a Th2 response by the immune system, on day 0 (denoted by first day injection) and day 7. Full body inhaled exposure to OVA was initiated at day 21. Briefly, these treatments utilized an InExpose full body aerosol chamber (Scireq, Montreal, Canada) where a 1% OVA solution, suspended in PBS, pH 7.45, was nebulized at 0.2 mL/min with a filtered room air flow rate of 2400 mL/min for a total period of 30 minutes, 3 times a week for either 42 (FIG. 13A) or 62 days (FIG. 13B). (Acute asthma model) Seven week old female Balb/c mice were injected intraperitoneally with 50 μg of chicken OVA absorbed with 1 mg aluminum hydroxide on day 0 (denoted by first day injection) and day 7. Aqueous OVA ([…] in PBS) was delivered intranasally daily from day 20 to day 24 (FIG. 2), Vasculotide or saline vehicle (control, PBS) was delivered to the mice via IP injections.
(§2) Blood was collected from the left ventricle of anaesthetized mice into heparinized 1 cc syringes. Following collection, blood was placed into Li-heparin microtubes. Subsequently, the tubes were centrifuged at 3000 RPM for 15 minutes at 4° C. Plasma was collected from the top of the samples and frozen at −80° C. for later analysis. The remaining buffy coat and red blood cells were lysed then fixed in 1× lyse/fix buffer (BD Biosciences, Mississauga, Canada) according to manufacturer's instructions.
(§3) Twenty-four hours after last aerosol exposure and immediately following exsanguinations, tissue was dissected from neck to expose trachea. A small lateral incision was made in the trachea to allow passage of 23 gauge lavage catheter into trachea. The catheter, attached to a 3 cc syringe containing warmed Hanks buffer, was carefully passed into the lumen of the trachea. A suture was secured around the trachea with a knot to secure the catheter in place. Buffer (1 cc) was injected slowly into the lungs and fully aspirated three times. The volume of recovered buffer was recorded for each animal to facilitate calculation of BAL infiltrate.
(§4) Analysis of plasma samples generated for the asthma study was the same as that outlined for the atopic dermatitis study with one small modification. Plasma from mice used in the asthma study was diluted 1:4 instead of 1:8 for the atopic dermatitis samples.
(§5) (BAL analysis) Collected BAL fluid was centrifuged at 1000 RPM for 10 minutes at 4° C. BAL fluid was removed and collected for subsequent CBA analysis. The BAL cell pellet was lysed/fixed in 1× lyse/fix buffer according to manufacturer's instructions (BD Biosciences, Mississauga, Canada). The total number of cells contained in each sample was determined by flow cytometry using flow-set beads (Count Bright Beads, Invitrogen), to facilitate sample volume and cell count calculations. A total of 7000 beads were counted for each sample. Flow cytometry analysis was gated on FSC/SSC to eliminate debris and dead cells. Differential cell count analysis was also performed by FACS where surface marker antibodies were used as follows: eosinophils (SSC^hi FITCmed Ige^med), neutrophils (SSC^med FITC^hi Ige^med), monocytes (SSC^med CD11b^+ CD115^+) and lymphocytes (SSC^lo and CD4^+ or CD8^+). In addition to monocyte markers (SSC^med CD11b^+ CD115^+), these cell populations were further characterized using antibodies specific for Tie2, TLR4, and Ly6C. Ly6C^low and Ly6C^high further define monocytes as classical, resident monocytes or inflammatory monocytes, respectively. Identified neutrophils were further labelled with antibodies to Tie2 and TLR4. All cell suspensions were incubated with purified anti-CD16/CD32 mAb (BD Biosciences, Mississauga, ON, Canada) to block non-specific background caused by Fc receptors, followed by incubation with the specific antibodies. […]

CFU-G = test: Methocult colony assay (ex vivo bone marrow proliferation and differentiation); format: cell-based, CD1 mice; conditions: 1 ng/ml or 10 ng/ml, Methocult M3434, 7 days
Description: Bone marrow was flushed from the femur bones of two month old CD1 mice and was suspended in Iscove's Modified Dulbecco's Media (Sigma, St. Louis, Mo.) at a concentration of 1×10^5 per ml. Cells were thoroughly suspended in methocellulose M3434 media (Stem Cell Technologies, Vancouver, BC) such that 1×10^4 cells per 35 mm tissue culture dish were dispensed. Prior to dispensing into the tissue culture dishes either vehicle (PBS) or Vasculotide 1 ng/ml or 10 ng/ml was mixed in. Plates were placed in an incubator at 37° C., 5% CO2 for 7 days without replenishment of vehicle or Vasculotide. […] Using an ex vivo model of bone marrow proliferation and differentiation (methocult), the influence of Vasculotide on bone marrow extracted from the femurs of normal CD1 mice was observed. Bone marrow was disaggregated and resuspended in methocult M3434 media plus Vasculotide (Vasc 1 ng/ml or 10 ng/ml) or control (PBS).

acute asthma mice = test: Acute asthma model (ovalbumin sensitization, intranasal challenge); format: in vivo, Balb/c mice
Description: as §1, §2, §3, §4, §5

[1] = chronic asthma, sustained effect

Vasculotide: Modified T7 peptide (CHHHRHSF, SEQ ID NO:2) conjugated to 10 kDa tetrameric polyethylene glycol-maleimide; Tie2 binding peptide mimetic
Tie2 levels in BAL neutrophils (chronic asthma mice; asthmatic mice, flow cytometry): unchanged
BAL neutrophil count (chronic asthma mice; chronic asthma, d42): unchanged
BAL eosinophil numbers (chronic asthma mice; chronic asthma, d42 and d62): significantly decreased; also recorded: statistical reduction
BAL monocyte infiltration / absolute number of monocytes (chronic asthma mice; chronic asthma, d42 and d62): significantly decreased; also recorded: statistical reduction
inflammatory monocytes (Ly6C+) in BAL (chronic asthma mice; chronic asthma, d42 and d62): decreased
absolute number of peripheral blood mononuclear cells (chronic asthma mice; chronic asthma, d42 or d62, did not reach significance): clear trend toward a reduction
BAL neutrophil count (chronic asthma mice; chronic asthma, d62): slight increase
BAL neutrophil count (chronic asthma mice; chronic asthma, d62, listed as Vsaculotide): very small increase
BAL lymphocytes (chronic asthma mice; chronic asthma, day 42 and day 62): statistical reduction
plasma IL-5 (cytometric bead array) (chronic asthma mice; [1]): decreasing
plasma RANTES (cytometric bead array) (chronic asthma mice; [1]): decreasing
plasma TNF (cytometric bead array) (chronic asthma mice; [1]): decreasing
reduction of total absolute BAL counts (chronic asthma mice; d42 chronic asthma model, systemic (IP) treatment, flow cytometry): 45%
TLR4 expression on BAL eosinophils (mean fluorescence intensity) (chronic asthma mice; d42 chronic asthma, PBS 166): 758 MFI
cell surface level of Tie2 on BAL eosinophils (mean fluorescence intensity) (chronic asthma mice; d42 chronic asthma, PBS 566): 205 MFI
decrease in lung collagen deposition (Masson's trichrome, % blue positive area) (chronic asthma mice; d62 chronic asthma, vs PBS): 4 fold
TLR4 expression on BAL eosinophils (mean fluorescence intensity) (chronic asthma mice; d62 chronic asthma, PBS 118): 132 MFI
all other populations of cells (colonies) (CFU-G): statistically indistinguishable from PBS control
total CFU-G numbers (CFU-G; vs PBS): statistically significant, dose-dependent reduction; also recorded: dose dependent, statistically significant reduction
classical monocytes (Ly6C−) in BAL (acute asthma mice; acute asthma, d24): increased
number of peripheral blood mononuclear cells (acute asthma mice; acute asthma, d24): prevented a significant increase
plasma IL-4 (cytometric bead array) (acute asthma mice; acute asthma, d24): decreased
plasma IL-5 (cytometric bead array) (acute asthma mice; acute asthma, d24): decreased
plasma IL-13 (cytometric bead array) (acute asthma mice; acute asthma, d24): decreased
plasma MCP-1 (cytometric bead array) (acute asthma mice; acute asthma, d24): decreased
plasma MIP1α (cytometric bead array) (acute asthma mice; acute asthma, d24): decreased
plasma MIP1β (cytometric bead array) (acute asthma mice; acute asthma, d24): decreased
plasma RANTES (cytometric bead array) (acute asthma mice; acute asthma, d24): decreased
plasma TNF (cytometric bead array) (acute asthma mice; acute asthma, d24): decreased
inflammatory monocytes (Ly6C+) in BAL (acute asthma mice; acute asthma, d24, vs PBS asthmatic controls): significantly fewer; also recorded: decreased
BAL eosinophil absolute counts (acute asthma mice; acute asthma, day 24): reduced; also recorded: statistical reduction
BAL number of lymphocytes (acute asthma mice; acute asthma, day 24): did not affect; also recorded: non-statistical trend towards decreased
BAL number of monocytes (acute asthma mice; acute asthma, day 24): did not affect
BAL number of neutrophils (acute asthma mice; acute asthma, day 24): did not affect; also recorded: non-statistical trend towards decreased
reduction of total absolute BAL counts (acute asthma mice; acute asthma, systemic (IP) treatment, flow cytometry): 25%
BAL cell numbers in the absence of asthma (acute asthma mice; non-asthmatic mice): no effect
